≈ marks a conversion by molar mass, not a printed value.
How the values were obtained:
[1] = Toxicity in dog assessed as decrease in hepatic glycogen content at 100 mg/kg/day, po measured over 14 days; assay type: organism-based, Canis lupus familiaris; conditions: in vivo, 336 h
[2] = Intrinsic clearance in human hepatocytes assessed per 10^6 cells; assay type: ADME, cell-based, Hepatocyte; conditions: read-out: CLH
[3] = Average plasma concentration in rat at 30 mg/kg, po administered as single dose measured on day 14; assay type: ADME, organism-based; conditions: in vivo
Rattus norvegicus [4] = test: Toxicity in rat assessed as change in food consumption up to 300 mg/kg/day, po measured over 14 days; assay type: organism-based; conditions: in vivo, 336 h
Rattus norvegicus [5] = test: Toxicity in rat assessed as hematological changes up to 300 mg/kg/day, po measured over 14 days; assay type: organism-based; conditions: in vivo, 336 h
[6] = Unbound Cmax in rat at 30 mg/kg, po administered as single dose measured on day 14; assay type: ADME, organism-based; conditions: in vivo
[7] = Toxicity in po dosed dog measured assessed as drug tolerance measured over 14 days; assay type: organism-based, Canis lupus familiaris; conditions: in vivo, 336 h
Rattus norvegicus [8] = test: Toxicity in po dosed rat assessed as drug tolerance measured over 14 days; assay type: organism-based; conditions: in vivo, 336 h
[9] = Solubility of the compound at pH 6.5; assay type: physicochemical; conditions: buffer
Rattus norvegicus [10] = test: Toxicity in rat assessed as increase in blood pressure at 100 mg/kg/day, po measured over 14 days; assay type: organism-based; conditions: in vivo, 336 h
Rattus norvegicus [11] = test: Toxicity in rat up to 300 mg/kg/day, po measured over 14 days by microscopic study; assay type: organism-based; conditions: in vivo, 336 h
[12] = Drug metabolism in human liver microsomes assessed as 2-chloro-4-(2-cyano-4-(N-(5-fluoropyridin-2-yl)sulfamoyl)phenoxy)benzoic acid formation; assay type: ADME
[13] = Intrinsic clearance in rat liver microsomes; assay type: ADME; conditions: read-out: CLH
Rattus norvegicus [14] = test: Toxicity in rat assessed as change in body weight up to 300 mg/kg/day, po measured over 14 days; assay type: organism-based; conditions: in vivo, 336 h
Rattus norvegicus [15] = test: Toxicity in rat up to 300 mg/kg/day, po measured over 14 days by clinical chemistry study; assay type: organism-based; conditions: in vivo, 336 h
[16] = Intrinsic clearance in rat hepatocytes assessed per 10^6 cells; assay type: ADME, cell-based, Hepatocyte; conditions: read-out: CLH
[17] = Drug metabolism in human hepatocytes assessed as 2-chloro-4-(2-cyano-4-(N-(5-fluoropyridin-2-yl)sulfamoyl)phenoxy)benzoic acid formation; assay type: ADME, cell-based, Hepatocyte
[18] = Toxicity in dog assessed as decrease in serum glucose at 100 mg/kg/day, po measured over 14 days; assay type: organism-based, Canis lupus familiaris; conditions: in vivo, 336 h
[19] = Intrinsic clearance in human liver microsomes; assay type: ADME; conditions: read-out: CLH
[20] = Octanol-water partition co-efficient, log D of the compound by shake flask method; assay type: physicochemical
[21] = Mutagenicity in […] by Ames test in presence of […] fraction; assay type: toxicity
[22] = Unbound clearance in rat at 0.5 mg/kg, iv and 1 mg/kg, po; assay type: ADME, organism-based; conditions: in vivo
P-gp = test: Substrate activity at p-gp (unknown origin) assessed as efflux ratio of permeability; assay type: ADME; conditions: human, not told
Rattus norvegicus [23] = test: Toxicity in rat assessed as change in organ weight up to 300 mg/kg/day, po measured over 14 days; assay type: organism-based; conditions: in vivo, 336 h
Cytochrome P450 2D6 = Cytochrome P450 2D6 (Homo sapiens, UniProt P10635); test: Inhibition of CYP2D6 (unknown origin); assay type: ADME
Cytochrome P450 2C9 = Cytochrome P450 2C9 (Homo sapiens, UniProt P11712); test: Inhibition of CYP2C9 (unknown origin); assay type: ADME
[24] = Toxicity in dog up to 100 mg/kg/day, po measured over 14 days by histologic test; assay type: organism-based, Canis lupus familiaris; conditions: in vivo, 336 h
[25] = target: Solute carrier family 22 member 11 (Homo sapiens, UniProt Q9NSA0); test: Inhibition of OAT4 (unknown origin)
[26] = Dissociation constant, pKa of the compound; assay type: physicochemical
[27] = target: Sodium channel protein type 9 subunit alpha (Homo sapiens, UniProt Q15858); test: Inhibition of NaV1.7 (unknown origin) by electrophysiology assay
[28] = Plasma clearance in rat at 0.5 mg/kg, iv and 1 mg/kg, po; assay type: ADME, organism-based
[29] = Drug metabolism in rat hepatocytes assessed as (2S,3S,4S,5R,6R)-6-(2-chloro-4-(2-cyano-4-(N-(5-fluoropyridin-2-yl)sulfamoyl)phenoxy)benzyloxy)-3,4,5-trihydroxytetrahydro-2H-pyran-2-carboxylic acid formation; assay type: ADME, cell-based, Hepatocyte
[30] = target: Solute carrier organic anion transporter family member 2B1 (Homo sapiens, UniProt O94956); test: Drug uptake assessed as human OATP2B1-mediated drug accumulation by cell-based assay relative to wild type protein; assay type: ADME
Solute carrier organic anion transporter family member 2B1, sequence (O94956 whole entry): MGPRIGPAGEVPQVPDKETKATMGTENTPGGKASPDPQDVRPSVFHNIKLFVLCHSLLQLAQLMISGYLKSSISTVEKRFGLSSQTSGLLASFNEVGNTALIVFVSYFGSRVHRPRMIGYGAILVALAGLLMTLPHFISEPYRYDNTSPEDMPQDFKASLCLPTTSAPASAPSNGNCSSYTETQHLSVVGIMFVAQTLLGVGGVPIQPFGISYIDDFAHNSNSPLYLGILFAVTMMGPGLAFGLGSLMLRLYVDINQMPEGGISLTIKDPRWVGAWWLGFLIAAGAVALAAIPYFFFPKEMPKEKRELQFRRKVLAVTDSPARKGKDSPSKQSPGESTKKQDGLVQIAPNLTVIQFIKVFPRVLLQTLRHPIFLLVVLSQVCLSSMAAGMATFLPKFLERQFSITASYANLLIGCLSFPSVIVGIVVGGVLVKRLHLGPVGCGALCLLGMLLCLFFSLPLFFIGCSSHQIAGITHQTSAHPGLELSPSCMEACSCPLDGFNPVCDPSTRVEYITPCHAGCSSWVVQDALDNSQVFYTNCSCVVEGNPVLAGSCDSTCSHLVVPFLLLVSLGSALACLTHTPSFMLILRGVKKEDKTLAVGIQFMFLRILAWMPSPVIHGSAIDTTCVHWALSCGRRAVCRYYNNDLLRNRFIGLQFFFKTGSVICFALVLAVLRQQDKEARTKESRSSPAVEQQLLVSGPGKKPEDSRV

Solute carrier family 22 member 11, sequence (Q9NSA0 whole entry): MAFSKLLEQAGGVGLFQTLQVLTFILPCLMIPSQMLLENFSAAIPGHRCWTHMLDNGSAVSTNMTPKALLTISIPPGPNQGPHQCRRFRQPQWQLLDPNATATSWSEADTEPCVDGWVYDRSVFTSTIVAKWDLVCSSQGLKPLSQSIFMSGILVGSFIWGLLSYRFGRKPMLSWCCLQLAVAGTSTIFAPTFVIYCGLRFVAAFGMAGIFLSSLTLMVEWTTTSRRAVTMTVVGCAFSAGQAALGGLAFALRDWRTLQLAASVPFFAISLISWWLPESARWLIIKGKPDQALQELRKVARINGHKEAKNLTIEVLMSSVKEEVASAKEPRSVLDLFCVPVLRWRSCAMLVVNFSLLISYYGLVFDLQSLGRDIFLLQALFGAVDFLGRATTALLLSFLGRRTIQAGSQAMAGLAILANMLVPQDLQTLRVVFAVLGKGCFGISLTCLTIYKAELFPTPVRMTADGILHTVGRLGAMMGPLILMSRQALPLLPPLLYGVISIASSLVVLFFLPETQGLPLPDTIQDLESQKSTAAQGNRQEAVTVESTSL
Sodium channel protein type 9 subunit alpha, sequence (Q15858 whole entry): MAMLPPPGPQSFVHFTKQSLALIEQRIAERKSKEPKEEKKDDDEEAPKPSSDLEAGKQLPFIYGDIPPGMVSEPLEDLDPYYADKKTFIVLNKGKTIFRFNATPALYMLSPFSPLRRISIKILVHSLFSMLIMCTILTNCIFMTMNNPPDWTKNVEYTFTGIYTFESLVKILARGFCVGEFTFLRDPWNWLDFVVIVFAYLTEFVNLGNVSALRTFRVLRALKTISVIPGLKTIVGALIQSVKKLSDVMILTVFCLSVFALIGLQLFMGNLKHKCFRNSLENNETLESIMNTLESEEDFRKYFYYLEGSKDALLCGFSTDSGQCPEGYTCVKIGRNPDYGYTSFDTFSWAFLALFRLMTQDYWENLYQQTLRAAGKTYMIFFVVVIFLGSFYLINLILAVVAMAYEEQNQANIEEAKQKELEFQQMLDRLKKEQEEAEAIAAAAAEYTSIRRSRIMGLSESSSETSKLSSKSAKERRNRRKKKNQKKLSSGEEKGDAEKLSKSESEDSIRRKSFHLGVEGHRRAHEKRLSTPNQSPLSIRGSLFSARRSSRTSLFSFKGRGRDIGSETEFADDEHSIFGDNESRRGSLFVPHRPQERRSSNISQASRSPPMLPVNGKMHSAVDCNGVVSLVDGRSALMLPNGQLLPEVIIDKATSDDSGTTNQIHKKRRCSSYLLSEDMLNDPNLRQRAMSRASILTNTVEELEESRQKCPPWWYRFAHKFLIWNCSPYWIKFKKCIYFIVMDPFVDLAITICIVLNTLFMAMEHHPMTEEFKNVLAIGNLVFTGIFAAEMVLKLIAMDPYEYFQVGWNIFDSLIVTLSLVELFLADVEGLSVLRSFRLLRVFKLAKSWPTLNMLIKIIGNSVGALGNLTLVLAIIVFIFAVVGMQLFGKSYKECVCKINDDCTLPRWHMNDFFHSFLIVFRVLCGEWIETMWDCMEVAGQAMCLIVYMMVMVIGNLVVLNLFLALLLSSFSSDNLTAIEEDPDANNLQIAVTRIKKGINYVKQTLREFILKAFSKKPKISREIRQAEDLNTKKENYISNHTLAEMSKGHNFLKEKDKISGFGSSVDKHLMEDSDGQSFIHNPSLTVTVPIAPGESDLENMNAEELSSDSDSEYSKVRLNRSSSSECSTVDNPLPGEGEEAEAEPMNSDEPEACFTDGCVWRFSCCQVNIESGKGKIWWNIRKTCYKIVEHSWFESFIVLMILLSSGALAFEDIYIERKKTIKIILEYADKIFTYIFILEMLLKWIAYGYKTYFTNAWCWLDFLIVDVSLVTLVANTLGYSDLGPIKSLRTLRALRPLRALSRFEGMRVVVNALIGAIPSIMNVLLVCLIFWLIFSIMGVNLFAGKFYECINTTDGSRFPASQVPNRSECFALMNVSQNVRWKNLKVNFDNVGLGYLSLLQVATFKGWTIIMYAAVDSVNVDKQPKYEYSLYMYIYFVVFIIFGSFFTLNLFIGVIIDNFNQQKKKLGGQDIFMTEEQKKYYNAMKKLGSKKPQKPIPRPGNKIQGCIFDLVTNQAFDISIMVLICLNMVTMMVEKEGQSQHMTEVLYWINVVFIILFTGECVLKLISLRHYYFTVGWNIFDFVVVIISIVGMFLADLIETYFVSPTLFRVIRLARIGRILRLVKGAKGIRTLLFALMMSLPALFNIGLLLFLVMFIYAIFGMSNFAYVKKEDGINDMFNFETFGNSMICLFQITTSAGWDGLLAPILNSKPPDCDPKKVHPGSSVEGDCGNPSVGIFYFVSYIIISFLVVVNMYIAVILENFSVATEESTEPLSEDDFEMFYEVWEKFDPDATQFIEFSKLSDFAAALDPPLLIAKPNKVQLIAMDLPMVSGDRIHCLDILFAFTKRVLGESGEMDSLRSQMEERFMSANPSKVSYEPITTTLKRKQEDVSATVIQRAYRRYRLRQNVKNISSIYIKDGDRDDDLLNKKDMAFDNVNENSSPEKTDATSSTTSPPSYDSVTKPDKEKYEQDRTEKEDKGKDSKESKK
Cytochrome P450 2D6, sequence (P10635 whole entry): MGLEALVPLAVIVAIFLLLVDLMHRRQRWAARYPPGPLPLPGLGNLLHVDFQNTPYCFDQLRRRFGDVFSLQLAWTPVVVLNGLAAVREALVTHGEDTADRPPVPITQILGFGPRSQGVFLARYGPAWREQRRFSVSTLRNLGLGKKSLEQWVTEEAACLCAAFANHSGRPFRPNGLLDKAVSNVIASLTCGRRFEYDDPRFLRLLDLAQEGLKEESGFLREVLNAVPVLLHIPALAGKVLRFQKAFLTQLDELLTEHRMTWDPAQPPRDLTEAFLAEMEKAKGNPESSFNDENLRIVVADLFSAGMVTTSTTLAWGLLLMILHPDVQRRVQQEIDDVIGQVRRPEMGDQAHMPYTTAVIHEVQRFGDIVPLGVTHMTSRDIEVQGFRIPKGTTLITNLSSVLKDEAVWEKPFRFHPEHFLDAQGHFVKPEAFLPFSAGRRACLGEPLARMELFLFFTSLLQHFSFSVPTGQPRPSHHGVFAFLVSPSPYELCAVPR
Cytochrome P450 2C9, sequence (P11712 whole entry): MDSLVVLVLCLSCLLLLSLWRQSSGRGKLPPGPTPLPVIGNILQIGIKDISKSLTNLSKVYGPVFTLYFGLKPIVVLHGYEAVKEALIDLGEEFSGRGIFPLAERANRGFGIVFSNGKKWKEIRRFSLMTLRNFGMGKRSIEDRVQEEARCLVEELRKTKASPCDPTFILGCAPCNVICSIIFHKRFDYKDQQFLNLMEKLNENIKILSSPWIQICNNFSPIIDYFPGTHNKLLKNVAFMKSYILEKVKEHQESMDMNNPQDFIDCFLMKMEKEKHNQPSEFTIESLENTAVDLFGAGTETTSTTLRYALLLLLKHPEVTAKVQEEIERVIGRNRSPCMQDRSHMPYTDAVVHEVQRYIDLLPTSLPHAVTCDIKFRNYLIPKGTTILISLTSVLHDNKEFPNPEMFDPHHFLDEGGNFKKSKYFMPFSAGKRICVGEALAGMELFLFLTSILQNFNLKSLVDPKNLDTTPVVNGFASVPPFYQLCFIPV

In the case of `N#Cc1cc(S(=O)(=O)Nc2ccc(F)cn2)ccc1Oc1ccc(CO)c(Cl)c1`, the Activity [1] is reported as “Toxic”, the hepatocyte CLint [2] is reported as 23 µL/min/1e6 cells and the Cave [3] is reported as 43 nM. For the same molecule, the Activity (Rattus norvegicus [4]) was “Non-Toxic”, the Activity (Rattus norvegicus [5]) was “Non-Toxic” and the fCmax [6] was 98 nM. The Activity [7] was “<= 100 mg/kg/day”, the Activity (Rattus norvegicus [8]) was “<= 300 mg/kg/day” and the solubility [9] was 15.3 µM (≈ 6.64 µg/mL). The Activity (Rattus norvegicus [10]) was “Non-Toxic”, the Activity (Rattus norvegicus [11]) was “Non-Toxic” and the Drug metabolism [12] was “Metabolite_Detected”. For the same molecule, the microsomal CLint [13] was under 14 µL/min/mg, the Activity (Rattus norvegicus [14]) was “Non-Toxic” and the Activity (Rattus norvegicus [15]) was “Non-Toxic”. The hepatocyte CLint [16] was 82 µL/min/1e6 cells, the Drug metabolism [17] was “Metabolite_Detected” and the Activity [18] was “Toxic”. The microsomal CLint [19] was under 10 µL/min/mg, the logD [20] was 2.1 and the Activity [21] was “Non-Toxic”. The CL free [22] was 93 mL/min/kg, the efflux ratio (P-gp) was 1.9 and the Activity (Rattus norvegicus [23]) was “Non-Toxic”. The IC50 (Cytochrome P450 2D6) was over 30 µM, the IC50 (Cytochrome P450 2C9) was 2 µM and the Activity [24] was “Non-Toxic”. For the same molecule, the IC50 [25] was 15 µM, the pKa [26] was 5.7 and the IC50 [27] was over 30 µM. For the same molecule, the clearance [28] was 1.3 mL/min/kg, the Drug metabolism [29] was “Metabolite_Detected” and the “fold change (FC)” value [30] was 1.48.

Reference: ChEMBL document CHEMBL3853264 (Medchemcomm, 2016)
